Assay results reported in patent US5470873A, “Diabetes prevention and treatment using gamma-pyrones” (University Technologies International, Inc., priority 1994, dated 1995).
Several values for one entry are separate records, joined by “and”; a condition that tells them apart may be missing. Identical values can stand only once. Entries after “also recorded” stand apart in the source; their conditions may differ.

Experiments:
[1] = Blood glucose levels in GK rats (NIDDM model), glucose tolerance test; assay type: in vivo
Description: To see whether DPD, alone or in combination with other modalities, had any effect on the control of blood glucose levels, GK rats were treated daily from 4 to 14 weeks of age with one of the following: At 14 weeks of age, glucose tolerance tests were performed by intraperitoneal injection of 2 mg glucose/gm body weight. Blood glucose levels were determined 60 minutes later using methods previously described^64-67. Rats receiving DPD alone were intubated daily with a 1.18 % (w/v) solution of DPD in PBS. At 4 weeks of age, rats received 0.5 ml of the 1.18% solution of DPD. This was increased by 0.1 ml/week so that rats at 14 weeks of age received 1.5 ml of the 1.18% solution of DPD. Control rats received the same volume of PBS only. Rats receiving OSA alone were intubated daily with an aqueous extract of OSA. The extract was prepared by adding 10% dried powdered OSA plant to boiling water, keeping the mixture at the boiling point in a sealed container for 3-4 hours, removing the supernatant, then cooling it for use in intubating the GK rats. This supernatant will be referred to as 10% OSA extract. At 4 weeks of age, rats received 0.5 ml of the 10% OSA extract. This was increased by about 0.15 ml/week so that rats at 14 weeks of age received 2.0 ml of the 10% OSA extract. Control rats received the same volume of PBS. […]

pancreatic islets = test: Histologic changes of pancreatic islets (hematoxylin and eosin); assay type: in vivo, NOD mice; parameters: key to Diabetes: "+" indicates "yes"; "-" indicates "no"
From the text: Maltol-treated and untreated NOD mice were sacrificed and 25% of each pancreas was fixed in 6% Formalin. Paraffin-embedded sections were stained with hematoxylin and eosin and examined under an Olympus light microscope ^49. To see whether there are any histological differences between the pancreatic islets of DPD-treated and untreated NOD mice, the pancreatic islets of 35 week old mice were examined with the light microscope after staining with hematoxylin and eosin. […] The rest of their islets were rated as having either severe (22%), moderate (27%), mild (25%) or no (6%) insulitis. […] In addition, there were histopathological changes in their pancreatic islets that were rated as moderate (22% of examined islets), mild (30%) or as having no insulitis (15%).

[2] = Blood glucose levels in NOD mice (glucose oxidase method); assay type: in vivo; conditions: NOD mice
Description: (§1) NOD mice were dosed with maltol to evaluate its effect on the pathogenesis of type I diabetes. Mice received 5 mg maltol/mouse every other day from age 2 weeks until they were 20 weeks old. Maltol extracted from ginseng as described in Example 2 was used for the first 10 weeks, then maltol purchased from Sigma Co., St. Louis, MO was used thereafter. The mice were kept until they were 35 weeks old. Urine glucose was measured at 3-day intervals from 10 to 35 weeks of age. Urinary glucose and ketone levels were determined using Diastix and Ketostix reagent slips (Miles, Ontario, Canada). Individual mice were classified as being diabetic on the basis of positive glycosuria^38. […] In contrast, 78% of age-matched control mice (22 mice) spontaneously developed autoimmune diabetes. At 35 weeks of age, fasting (8 hours of fasting) and non-fasting blood glucose levels were measured. Blood was obtained from the retro-orbital venous plexus of fasting and nonfasting NOD mice. Glucose levels were measured enzymatically by the glucose oxidase method with o-dianisidine dihydrochloride as the reactive dye ^39-41 . The mean nonfasting blood glucose level of 35 ICR mice (nondiabetic control mice; NOD mice were derived from ICR mice) was 149±27 mg/dl. Any non-fasting mouse with a blood glucose level greater than 230 mg/dl (3 SD above the mean) was scored as diabetic. The mean fasting blood glucose level of 38 ICR mice was 137±28 mg/dl. Any fasting mouse with a blood glucose level greater than 221 mg/dl (3 SD above the mean) was scored as diabetic.

pancreatic beta cells = test: Destruction of pancreatic beta cells detected by fluorescein labelled anti-insulin antibody; assay type: in vivo, NOD mice; parameters: key to Diabetes: "+" indicates "yes"; "-" indicates "no"
Description: Fluorescein isothiocyanate-labelled anti-insulin antibody was prepared as described previously 45. Briefly, gamma globulin that was prepared by immunizing guinea pigs with glutaraldehyde polymerized porcine insulin and purified by Sephadex G-200 chromatography was purchased from Index Corp., Glenwood, Ill, USA. This material was labelled with FITC. Unconjugated FITC was removed by dialysis against 0.01M PBS (pH 7.5) and by gel filtration through a Sephadex G-25. The labelled gamma globulin was subsequently absorbed with acetone-treated mouse liver powder to eliminate nonspecific fluorescence. Pancreatic sections (from 25% of each pancreas) prepared from maltol-treated and untreated NOD mice were stained with FITC-labelled anti-insulin antibody and examined under a fluorescent microscope as described elsewhere 47.48. Briefly, pancreatic sections on the slides were flooded with FITC-labelled anti-insulin antibody and incubated in a humidity chamber overnight at 4° C. in the dark. The slides were then washed in three changes of cold PBS for a total of 20 min to remove any unattached antibody, mounted with Elvanol and observed with an Olympus fluorescence microscope ^45. As it is difficult to determine whether the lymphocytes observed in the pancreatic islets are contributing to beta cell destruction, another method was used to determine whether beta cells from maltol-treated or untreated NOD mice were destroyed or not. Sections of pancreatic islets were stained with a fluorescein-labelled anti-insulin antibody and the number of insulin-containing beta cells in the islets was estimated.

[3] = Prevention of clinical diabetes (glycosuria) in NOD mice; assay type: in vivo; conditions: observed to 35 weeks, incl. 15 weeks after cessation of treatment
Description: as §1

[4] = individual DPD-treated non-diabetic NOD mice (animal 1-5), 35 weeks
[5] = 30% to 69% of beta cell destruction, individual DPD-treated NOD mice (animal 1-5)
[6] = less than 30% of beta cell destruction, individual DPD-treated NOD mice (animal 1-5)
[7] = no destruction of beta cells, individual DPD-treated NOD mice (animal 1-5)
[8] = over 70% of beta cell destruction, individual DPD-treated NOD mice (animal 1-5)

Cc1occc(=O)c1O [DPD, maltol]
Blood Glucose ([1]; DPD 1.18% (w/v) in PBS oral daily, 4 to 14 weeks of age, 60 minutes after i.p. 2 mg glucose/gm, PBS control 389 ± 23): 349 ± 42 mg/dL | Effect on control of blood glucose levels (in words) ([1]; GK rats): some reduction of blood glucose levels | Diabetes (pancreatic islets; Table 2, individual DPD-treated NOD mice): - | Mild histopathological changes, share of examined islets (pancreatic islets; group of DPD-treated NOD mice): 30% | Moderate histopathological changes, share of examined islets (pancreatic islets; group of DPD-treated NOD mice): 22% | No insulitis, share of examined islets (pancreatic islets; group of DPD-treated NOD mice): 15% | Severe insulitis, share of examined islets (pancreatic islets; group of DPD-treated NOD mice, untreated diabetic 35%): about 19% | Severe beta cell necrosis, share of examined islets (pancreatic islets; group of DPD-treated NOD mice, untreated diabetic 64%): approximately 14% | Beta Cell Necrosis, islets affected / islets examined (pancreatic islets; [4]): 5/31 and 5/32 and 3/28 and 4/32 | Beta Cell Necrosis, percent of islets (pancreatic islets; [4]): 16% and 11% and 13% | Intact Islet, islets / islets examined (pancreatic islets; [4]): 4/31 and 5/32 and 4/28 | Intact Islet, percent of islets (pancreatic islets; [4]): 19% and 15% and 14% and 13% | Mild Insulitis, islets affected / islets examined (pancreatic islets; [4]): 9/31 and 8/32 and 11/28 and 10/31 and 9/32 | Mild Insulitis, percent of islets (pancreatic islets; [4]): 29% and 25% and 39% and 33% and 28% | Moderate Insulitis, islets affected / islets examined (pancreatic islets; [4]): 7/31 and 8/32 and 5/28 and 6/31 | Moderate Insulitis, percent of islets (pancreatic islets; [4]): 23% and 25% and 18% and 19% | Severe Insulitis, islets affected / islets examined (pancreatic islets; [4]): 6/31 and 6/32 and 5/28 | Severe Insulitis, percent of islets (pancreatic islets; [4]): 19% and 18% | Hyperglycemia / clinical diabetes by blood glucose (in words) [2]: do not exhibit hyperglycemia; also recorded: prevents clinical diabetes | Moderate Destruction of beta cells, islets / islets examined (pancreatic beta cells; [5]): 4/16 and 5/17 and 3/18 and 4/19 | Moderate Destruction of beta cells, percent of islets (pancreatic beta cells; [5]): 25% and 29% and 17% and 21% | Diabetes (pancreatic beta cells; Table 3, individual DPD-treated NOD mice): - | Destruction of pancreatic beta cells (in words) (pancreatic beta cells; compared to untreated, diabetic NOD mice): significantly lower | Mild destruction, share of examined islets (pancreatic beta cells; group of DPD-treated NOD mice): 45% | Moderate destruction, share of examined islets (pancreatic beta cells; group of DPD-treated NOD mice): 23% | No destruction, share of examined islets (pancreatic beta cells; group of DPD-treated NOD mice): 12% | Severe destruction, share of examined islets (pancreatic beta cells; group of DPD-treated NOD mice): 20% | Mild Destruction of beta cells, islets / islets examined (pancreatic beta cells; [6]): 7/16 and 7/17 and 9/18 and 9/19 | Mild Destruction of beta cells, percent of islets (pancreatic beta cells; [6]): 43% and 41% and 50% and 47% | Intact, islets / islets examined (pancreatic beta cells; [7]): 2/16 and 2/17 and 2/18 and 2/19 | Intact, percent of islets (pancreatic beta cells; [7]): 13% and 12% and 11% | Severe Destruction of beta cells, islets / islets examined (pancreatic beta cells; [8]): 3/16 and 3/17 and 4/18 and 4/19 | Severe Destruction of beta cells, percent of islets (pancreatic beta cells; [8]): 19% and 18% and 22% and 21% | Prevention / recurrence of clinical diabetes (in words) [3]: no recurrence of the disease; also recorded: prevented clinical diabetes completely; also recorded: prevents the onset of clinical diabetes
